In patent US20260274894A1, “CYCLIC POLYPEPTIDE COMPOUND AND USE THEREOF” (BIVISION PHARMACEUTICALS, INC., priority 2023, published 2026):
Like-named read-outs stand apart in the source and are kept apart here. Blank lines part the entries; values can stand above or below the compound they belong to. Numbered stars: 1 amine (or outer) side, 2 acyl side, 3 side chain; on linkers, the order of the positions; unused ones are H or OH. Bridge positions count the residues as written; N and C are the ends. Square brackets hold non-standard residues; d marks the D form. Side chains are listed from the residue outwards. Peptide text beside a SMILES is read from it. * marks the point of attachment. ξ: configuration not given here. NH(CH2)2(4-DOTA-piperazinyl) = O=C(O)CN1CCN(CC(=O)O)CCN(CC(=O)N2CCN(CCN*)CC2)CCN(CC(=O)O)CC1; NH(CH2)2O(CH2)2NHDOTA = O=C(O)CN1CCN(CC(=O)O)CCN(CC(=O)NCCOCCN*)CCN(CC(=O)O)CC1; X5 = CCCCCC(=O)N[C@@H](CSCc1cccc(C[*:2])c1)C(=O)N1CCC[C@@H](NC(=O)[*:1])C1; X6 = CCCCCC(=O)N[C@@H](CSCc1cccc(C[*:2])c1)C(=O)C1CCC[C@@H](CC(=O)[*:1])C1; DOTA = O=C(O)CN1CCN(CC(=O)O)CCN(CC(=O)*)CCN(CC(=O)O)CC1; Azetidine3carboxylic = O=C(C1CN([*:1])C1)[*:2]; mXylylene = c1cc(C[*:1])cc(C[*:2])c1; Cha = N[C@@H](CC1CCCCC1)C(=O)O; Dab = NCC[C@H](N)C(=O)O; ξQ = NC(=O)CCC(N)C(=O)O; Hexanoyl = CCCCCC(=O)*; AEEA = NCCOCCOCC(=O)O; CO = O=C([*:1])[*:2]; Ahx = NCCCCCC(=O)O; ξP = O=C(O)C1CCCN1; GABA = NCCCC(=O)O; ξC = NC(CS)C(=O)O; NHBu = CCCCN*

Assays:
[1] = molecular target: T1, FAP protein (Homo sapiens, UniProt Q12884); experiment: Biacore test of compound affinity to FAP protein; settings: Biacore 8K, SA chip, 15° C., 1:1 binding model; read-out: pKD (FAP) (converted)
T1 construct: purchased Sinobiological
T1 sequence (Q12884 1-760): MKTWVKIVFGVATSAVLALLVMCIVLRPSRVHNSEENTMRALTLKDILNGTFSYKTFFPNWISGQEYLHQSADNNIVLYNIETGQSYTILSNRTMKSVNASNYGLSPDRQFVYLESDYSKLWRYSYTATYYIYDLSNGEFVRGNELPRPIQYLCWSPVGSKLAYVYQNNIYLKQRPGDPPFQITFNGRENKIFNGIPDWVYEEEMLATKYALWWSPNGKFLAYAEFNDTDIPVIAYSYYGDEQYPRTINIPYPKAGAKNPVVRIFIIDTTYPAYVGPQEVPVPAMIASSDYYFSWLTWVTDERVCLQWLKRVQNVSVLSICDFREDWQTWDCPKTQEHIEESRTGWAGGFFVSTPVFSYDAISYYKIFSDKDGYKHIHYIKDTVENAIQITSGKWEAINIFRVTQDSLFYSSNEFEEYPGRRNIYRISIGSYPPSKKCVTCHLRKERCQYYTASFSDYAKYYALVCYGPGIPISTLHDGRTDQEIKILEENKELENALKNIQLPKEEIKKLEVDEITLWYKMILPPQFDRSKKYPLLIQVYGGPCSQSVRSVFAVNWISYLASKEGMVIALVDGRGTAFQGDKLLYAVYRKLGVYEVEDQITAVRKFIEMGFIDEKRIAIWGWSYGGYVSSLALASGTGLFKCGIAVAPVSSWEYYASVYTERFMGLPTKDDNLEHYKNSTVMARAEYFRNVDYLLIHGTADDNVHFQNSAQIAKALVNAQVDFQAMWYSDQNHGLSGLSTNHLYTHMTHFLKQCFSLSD
Experimental: The Biacore 8K (Cytiva) instrument was used to detect ligand binding of the FAP protein (Sinobiological). FAP protein was captured on the SA chip. […] The sensor surface was conditioned by injecting 1M NaCl three consecutive times in 50 mM NaOH. After each ligand injection, additional cleaning was performed using isopropanol in 1M NaCl and 50 mM NaOH (flow path 1 and 2, flow rate of 10 μL/min, injection time of 60 s). […] The analyte was run under the following conditions: analysis temperature of 15° C., analysis step=all set to LMW kinetics; cycle type=single cycle (contact time of 90 s, dissociation time of 1800 s, flow rate of 30 μL/min, flow channels 1 and 2); channel detection=2-1. Data was evaluated using the Biacore Insight Evaluation Software, and the data were fitted to a 1:1 binding model. The Biacore results are shown in Table 2 below: pKD=−Log KD, where KD is the binding affinity of the compound to the FAP protein as measured by Biacore.

[2] = Determination of C Log P (n-octanol/water partition, gamma counts); format: physicochemical
Experimental: Two EP tubes were taken, and 100 μL of saturated n-octanol aqueous solution and 80 µL of pure water were added to each tube, respectively. […] After shaking and mixing for 2 hours, the tubes were centrifuged at room temperature at 2000 rpm/min for 5 minutes. 20 μL was taken from the upper layer (lipid layer) and lower layer (aqueous layer) of each tube, and gamma counts were measured.

[3] = system: HT1080 2 #; experiment: Therapeutic results of ^177Lu-labeled compound in tumor-bearing mice (tumor volume); format: in vivo, Balb/c Nude mice
Experimental: The body weight and tumor size were measured.

Kd [1]: 10 to 100 nM
SMILES: CCCCNC(=O)N[C@H]1CSCc2cccc(c2)CSC[C@@H](C(=O)N[C@@H](CCC(=O)NCCN2CCN(C(=O)CN3CCN(CC(=O)O)CCN(CC(=O)O)CCN(CC(=O)O)CC3)CC2)C(=O)O)NC(=O)[C@H](Cc2ccccc2)NC(=O)[C@H](CCC(N)=O)NC(=O)[C@H]([C@@H](C)O)NC(=O)C2CCCN2C(=O)C2CN(C2)C1=O (stereo partly drawn) [JHDC50, nBu-urea-[Cys(3MeBn)-hhy39-Pro-Thr-Gln-Phe-Cys]-Glu-(aminoethylpiperazine-DOTA)-OH] ({NHBu-CO}-C[Azetidine3carboxylic][ξP]TQFCE(NH(CH2)2(4-DOTA-piperazinyl))-OH; linker 1-7 via mXylylene)

Kd [1]: < 10 nM
SMILES: CCCCNC(=O)N[C@H]1CSCc2cccc(c2)CSCC(C(=O)N[C@@H](CCNC(=O)CCCNC(=O)CN2CCN(CC(=O)O)CCN(CC(=O)O)CCN(CC(=O)O)CC2)C(=O)O)NC(=O)[C@H](CC2CCCCC2)NC(=O)[C@H](CCC(N)=O)NC(=O)[C@H]([C@@H](C)O)NC(=O)[C@@H]2CCCN2C(=O)C2CN(C2)C1=O (stereo partly drawn) [JHDC55, nBu-urea-[Cys(3MeBn)-hhy39-Pro-Thr-Gln-hhy34-Cys]-DABA-(ABA-DOTA)-OH] ({NHBu-CO}-C[Azetidine3carboxylic]PTQ[Cha][ξC][Dab]([GABA-DOTA])-OH; linker 1-7 via mXylylene)

logP [2]: -2.69
SMILES: CCCCCC(=O)N[C@H]1CSCc2cccc(c2)CSC[C@@H](C(=O)N[C@@H](CCC(=O)NCCOCCNC(=O)CN2CCN(CC(=O)O)CCN(CC(=O)O)CCN(CC(=O)O)CC2)C(=O)O)NC(=O)[C@H](Cc2ccccc2)NC(=O)[C@H](CCC(N)=O)NC(=O)[C@H]([C@@H](C)O)NC(=O)[C@@H]2CCCN2C(=O)C2CN(C2)C1=O [^177Lu -JHDC06, metal not drawn] (Hexanoyl-C[Azetidine3carboxylic]PTQFCE(NH(CH2)2O(CH2)2NHDOTA)-OH; linker 1-7 via mXylylene)

logP [2]: -1.3
SMILES: CCCCCC(=O)N[C@H]1CSCc2cccc(c2)CSC[C@@H](C(=O)N[C@@H](CCCCNC(=O)CCCCCNC(=O)CN2CCN(CC(=O)O)CCN(CC(=O)O)CCN(CC(=O)O)CC2)C(=O)O)NC(=O)[C@H](CC2CCCCC2)NC(=O)C(CCC(N)=O)NC(=O)[C@H]([C@@H](C)O)NC(=O)C2CCCN2C(=O)C[C@@H]2CCCC(C2)C1=O (stereo partly shown) [^177Lu -JHDC13, metal not drawn] ([ξP]T[ξQ][Cha]CK([Ahx-DOTA])-OH; linker N-5 via X6)

logP [2]: -1.39
SMILES: CCCCCC(=O)N[C@H]1CSCc2cccc(c2)CSC[C@@H](C(=O)N[C@@H](CCCCNC(=O)COCCOCCNC(=O)CN2CCN(CC(=O)O)CCN(CC(=O)O)CCN(CC(=O)O)CC2)C(=O)O)NC(=O)[C@H](CC2CCCCC2)NC(=O)[C@H](CCC(N)=O)NC(=O)[C@H]([C@@H](C)O)NC(=O)[C@@H]2CCCN2C(=O)N[C@@H]2CCCN(C2)C1=O [^177Lu -JHDC14, metal not drawn] (PTQ[Cha]CK([AEEA-DOTA])-OH; linker N-5 via X5)

logP ([2]; read-out: ClogP): -1.6
SMILES: CCCCCC(=O)N[C@H]1CSCc2cccc(c2)CSC[C@@H](C(=O)N[C@@H](CCCCNC(=O)COCCOCCNC(=O)CN2CCN(CC(=O)O)CCN(CC(=O)O)CCN(CC(=O)O)CC2)C(=O)O)NC(=O)CNC(=O)[C@H](CC2CCCCC2)NC(=O)[C@H](CCC(N)=O)NC(=O)[C@H]([C@@H](C)O)NC(=O)C2CCCN2C(=O)N[C@@H]2CCCN(C2)C1=O (stereo partly shown) [^177Lu -JHDC15, metal not drawn] ([ξP]TQ[Cha]GCK([AEEA-DOTA])-OH; linker N-6 via X5)

logP ([2]; read-out: ClogP): -2.74
SMILES: CCCCCC(=O)N[C@H]1CSCc2cc(CSCCNC(=O)CN3CCN(CC(=O)O)CCN(CC(=O)O)CCN(CC(=O)O)CC3)cc(c2)CSC[C@@H](C(=O)O)NC(=O)[C@H](Cc2ccccc2)NC(=O)[C@H](CCC(N)=O)NC(=O)[C@H]([C@@H](C)O)NC(=O)[C@@H]2CCCN2C(=O)[C@@H]2CCCN2C1=O [^177Lu-FAP-2286, metal not drawn, reference compound]
Tumor volume (mm^3) ([3]; Day 0): 466.80 ± 118.37 mm^3
Tumor volume (mm^3) ([3]; Day 2): 630.23 ± 96.79 mm^3
Tumor volume (mm^3) ([3]; Day 6): 525.29 ± 100.39 mm^3
Tumor volume (mm^3) ([3]; Day 9): 1,041.55 ± 348.07 mm^3
Tumor volume (mm^3) ([3]; Day 13): 2,345.02 ± 298.66 mm^3
Tumor volume (mm^3) ([3]; Day 16): 3,180.37 ± 697.35 mm^3
